Key:
5-HT2A [1] = target: T1, 5-HT2A (Homo sapiens, UniProt P28223); assay: Radioligand displacement binding (3H-5-HT); design: expressed in transfected cells; host or cells: CHO or HEK293
Protocol: (§1) The affinity constants of compounds were determined using recombinant human serotonin receptors stably expressed in fibroblast cell lines (CHO or HEK293), measuring the ability of the compounds to displace radio-labelled tracers using scintillation proximity assays or filter binding assays. For 5-HT1B, 5-HT2B and 5-HT2C receptor binding studies ^3H-LSD was used as radio ligand, for 5-HT2A and 5-HT6 ^3H-5-HT was used as tracer, while the binding constant to 5-HT1A was determined using ^3H-8-OH-DPAT. The non-selective serotonin receptor antagonist mianserine was used as reference substance.
(§2) The calculation of the Ki values for the inhibitors was performed by use of Activity Base. The Ki value is calculated from IC50 using the Cheng Prushoff equation (with reversible inhibition that follows the Michaelis-Menten equation): […] [Cheng, Y. C.; Prushoff, W. H. Biochem. Pharmacol. 1973, 22, 3099-3108].

5-HT2A [2] = target: T1, 5-HT2A; assay: FLIPR functional assay, inhibition of the 5-HT-evoked peak response (primary screening and IC50 determination); type: cell-based; design: expressed in transfected cells; host or cells: CHO; settings: CHO cells expressing 5-HT2A, 15 min pre-incubation, Ki calculated from IC50 (Cheng-Prusoff)
Protocol: CHO cells expressing 5-HT2A receptors seeded in 384 well plates are pre-loaded with Fluo-4AM fluorescent dye and then incubated with compound (10 μM for primary screen) for 15 min. Fluorescent intensity is recorded using a Fluorometric imaging plate reader (FLIPR384, Molecular Devices) and inhibition of the peak response evoked by 5-HT (EC70 concentration) is calculated.
IC50 determinations are performed utilizing the same functional assay as described for primary screening (15 min antagonist compound pre-incubation), applying the compounds in the dose range of 3 nM to 10 μM.
as §2

5-HT2C [3] = target: T2, 5-HT2C (Homo sapiens, UniProt P28335); assay: FLIPR based assay, effect on 10 nM 5-HT induced Ca2+-currents; type: cell-based; settings: FLIPR functional assays
T2 sequence (P28335 33-458): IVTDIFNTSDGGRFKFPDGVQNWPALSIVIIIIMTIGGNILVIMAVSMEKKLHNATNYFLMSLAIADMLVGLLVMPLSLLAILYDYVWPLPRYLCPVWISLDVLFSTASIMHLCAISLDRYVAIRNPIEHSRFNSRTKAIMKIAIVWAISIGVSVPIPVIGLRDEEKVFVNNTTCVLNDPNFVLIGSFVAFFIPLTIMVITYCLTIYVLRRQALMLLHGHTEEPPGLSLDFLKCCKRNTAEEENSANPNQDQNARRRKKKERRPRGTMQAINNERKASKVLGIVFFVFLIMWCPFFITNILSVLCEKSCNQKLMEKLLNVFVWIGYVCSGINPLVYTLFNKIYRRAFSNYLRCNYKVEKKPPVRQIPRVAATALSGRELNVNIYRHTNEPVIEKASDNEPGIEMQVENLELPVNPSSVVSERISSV
Protocol: The activity at 5-HT2C receptors was studied in a FLIPR based assay, measuring the effect of compounds on 10 nM 5-HT induced_Ca^2+-currents.

5-HT1A = target: T3, 5-HT1A (Homo sapiens, UniProt P08908); assay: Radioligand displacement binding (3H-8-OH-DPAT); settings: recombinant human receptor in CHO or HEK293; tracer 3H-8-OH-DPAT
T3 construct: expressed in transfected cells; host or cells: CHO or HEK293
T3 sequence (P08908 1-422): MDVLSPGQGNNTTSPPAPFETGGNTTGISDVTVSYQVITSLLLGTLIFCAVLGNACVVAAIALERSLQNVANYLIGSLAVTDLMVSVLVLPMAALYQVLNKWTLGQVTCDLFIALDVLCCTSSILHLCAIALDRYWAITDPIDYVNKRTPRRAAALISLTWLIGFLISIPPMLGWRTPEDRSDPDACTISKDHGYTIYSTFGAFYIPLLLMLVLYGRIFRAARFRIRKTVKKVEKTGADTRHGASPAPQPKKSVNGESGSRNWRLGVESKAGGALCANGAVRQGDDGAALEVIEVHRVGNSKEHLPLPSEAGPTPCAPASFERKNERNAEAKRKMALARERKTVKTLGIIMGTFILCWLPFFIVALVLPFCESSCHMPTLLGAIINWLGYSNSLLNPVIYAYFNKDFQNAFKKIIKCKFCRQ
Protocol: as §1, §2

5-HT6 = target: T4, 5-HT6 (Homo sapiens, UniProt P50406); assay: Radioligand displacement binding (3H-5-HT); settings: recombinant human receptor in CHO or HEK293; tracer 3H-5-HT
T4 construct: expressed in transfected cells; host or cells: CHO or HEK293
T4 sequence (P50406 whole entry): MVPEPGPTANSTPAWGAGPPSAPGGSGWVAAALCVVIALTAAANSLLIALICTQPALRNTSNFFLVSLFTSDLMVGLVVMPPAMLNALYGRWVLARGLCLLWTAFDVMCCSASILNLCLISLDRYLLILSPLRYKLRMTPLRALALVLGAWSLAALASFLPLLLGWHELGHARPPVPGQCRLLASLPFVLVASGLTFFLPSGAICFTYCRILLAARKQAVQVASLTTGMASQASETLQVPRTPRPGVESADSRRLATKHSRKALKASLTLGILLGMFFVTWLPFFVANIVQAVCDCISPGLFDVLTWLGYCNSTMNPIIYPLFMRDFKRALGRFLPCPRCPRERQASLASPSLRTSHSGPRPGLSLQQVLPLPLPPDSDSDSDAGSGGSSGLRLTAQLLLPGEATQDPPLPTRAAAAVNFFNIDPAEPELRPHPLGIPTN
Protocol: as §1, §2

5-HT2C [4] = target: T2, 5-HT2C; assay: Radioligand displacement binding (3H-LSD); design: expressed in transfected cells; host or cells: CHO or HEK293; settings: recombinant human receptor in CHO or HEK293; tracer 3H-LSD
Protocol: as §1, §2

5-HT2B = target: T5, 5-HT2B (Homo sapiens, UniProt P41595); assay: Radioligand displacement binding (3H-LSD); settings: recombinant human receptor in CHO or HEK293; tracer 3H-LSD
T5 construct: expressed in transfected cells; host or cells: CHO or HEK293
T5 sequence (P41595 whole entry): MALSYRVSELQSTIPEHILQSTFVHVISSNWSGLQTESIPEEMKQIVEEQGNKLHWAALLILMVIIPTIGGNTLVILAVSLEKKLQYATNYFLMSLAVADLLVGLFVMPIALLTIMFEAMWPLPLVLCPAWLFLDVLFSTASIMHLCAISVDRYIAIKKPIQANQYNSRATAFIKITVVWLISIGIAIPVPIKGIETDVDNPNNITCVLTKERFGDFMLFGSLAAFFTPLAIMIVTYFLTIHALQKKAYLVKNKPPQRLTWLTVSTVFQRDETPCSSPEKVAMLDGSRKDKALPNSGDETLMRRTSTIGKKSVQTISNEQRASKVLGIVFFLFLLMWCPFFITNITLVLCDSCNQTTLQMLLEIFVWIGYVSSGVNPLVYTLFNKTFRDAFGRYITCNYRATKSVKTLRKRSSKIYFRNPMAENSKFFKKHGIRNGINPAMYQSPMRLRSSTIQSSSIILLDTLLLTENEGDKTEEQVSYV
Protocol: as §1, §2

5-HT1B = target: T6, 5-HT1B (Homo sapiens, UniProt P28222); assay: Radioligand displacement binding (3H-LSD); settings: recombinant human receptor in CHO or HEK293; tracer 3H-LSD
T6 construct: expressed in transfected cells; host or cells: CHO or HEK293
T6 sequence (P28222 whole entry): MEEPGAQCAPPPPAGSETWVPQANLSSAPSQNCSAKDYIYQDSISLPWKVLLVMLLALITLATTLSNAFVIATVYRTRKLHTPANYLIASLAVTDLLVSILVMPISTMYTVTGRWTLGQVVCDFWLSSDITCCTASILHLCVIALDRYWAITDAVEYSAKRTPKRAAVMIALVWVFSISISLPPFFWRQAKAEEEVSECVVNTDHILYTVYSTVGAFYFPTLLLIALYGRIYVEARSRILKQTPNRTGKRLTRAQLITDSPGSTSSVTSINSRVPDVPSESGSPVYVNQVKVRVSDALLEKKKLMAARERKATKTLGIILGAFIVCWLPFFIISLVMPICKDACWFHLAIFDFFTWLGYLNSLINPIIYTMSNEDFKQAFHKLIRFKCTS
Protocol: as §1, §2

T1 sequence (P28223 whole entry): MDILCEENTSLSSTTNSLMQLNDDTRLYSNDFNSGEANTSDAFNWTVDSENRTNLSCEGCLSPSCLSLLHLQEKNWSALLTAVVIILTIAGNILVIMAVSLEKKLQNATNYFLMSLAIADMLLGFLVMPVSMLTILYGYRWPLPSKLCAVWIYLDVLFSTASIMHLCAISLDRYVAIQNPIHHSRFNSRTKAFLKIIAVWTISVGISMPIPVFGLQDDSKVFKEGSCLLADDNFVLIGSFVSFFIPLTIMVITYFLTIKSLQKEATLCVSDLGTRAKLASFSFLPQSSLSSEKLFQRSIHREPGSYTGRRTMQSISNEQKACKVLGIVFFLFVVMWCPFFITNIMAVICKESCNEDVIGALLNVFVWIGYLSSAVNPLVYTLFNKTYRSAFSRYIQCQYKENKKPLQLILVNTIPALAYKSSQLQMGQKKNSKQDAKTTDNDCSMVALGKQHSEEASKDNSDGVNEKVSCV

Structure (SMILES): COc1cccc(OC)c1OCCN1CCC(C(=O)NC(=O)Nc2cccc(C(F)(F)F)c2)CC1 [Example 2, 1-[2-(2,6-dimethoxyphenoxy)ethyl]-N-({[3-(trifluoromethyl)phenyl]amino}carbonyl)piperidine-4-carboxamide]
- Selectivity over five other serotonin receptors (5-HT2C, 5-HT2B, 5-HT1A, 5-HT6 and 5-HT1B) (5-HT2A [1]; binding, 5-HT2A versus the other receptors): highly selective
- Affinity for the 5-HT2A receptor subtype (Ki, in words) (5-HT2A [1]; equilibrium displacement binding): in the nanomolar range
- Ki (5-HT2A [1]; recombinant human receptor in CHO or HEK293, tracer 3H-5-HT): 23 nM
- Ki (5-HT2A [2]): 32.3 nM
- Selectivity at 5-HT2A versus the 5-HT2C receptor in terms of efficacy (5-HT2C [3]): selective
- Ki (5-HT1A): > 1000 nM
- Ki (5-HT6): > 1000 nM
- Ki (5-HT2C [4]): > 1000 nM
- Ki (5-HT2B): > 1000 nM
- Ki (5-HT1B): > 1000 nM
